Test results as given in US9487516B2, “Antibacterial oxadiazolone derivatives” (priority 2013, dated 2016).
Values after ≈ are worked out from the molar mass of the structure shown.

Experiments:
Assay in all cases: Bacterial growth minimal inhibitory concentration (microdilution, cation-adjusted Mueller-Hinton Broth)
Assay type in all cases: cell-based
[1] = tested on: Staphylococcus aureus ATCC29213; details: methicillin-sensitive and quinolone-sensitive strain, read-out: MIC for S. aureus ATCC29213
Description: (§1) Minimal Inhibitory Concentrations (MICs; mg/L) were determined in cation-adjusted MuellerHinton Broth by a microdilution method following the description given in “Methods for Dilution Antimicrobial Susceptibility Tests for Bacteria that Grow Aerobically”, Approved standard, 7th ed., Clinical and Laboratory Standards Institute (CLSI) Document M7-A7, Wayne, Pa., USA, 2006.
(§2) All Example compounds were tested against several Gram positive and Gram negative bacteria. […] Staphylococcus aureus A798, Enterococcus faecium A949 and Acinetobacter baumanii T6474 are multiply-resistant strains (in particular quinolone-resistant), while Moraxella catarrhalis A894 is a quinolone-sensitive strain and Staphylococcus aureus ATCC29213 is a methicillin-sensitive and quinolone-sensitive strain.

[2] = tested on: Moraxella catarrhalis A894; details: quinolone-sensitive strain
Description: as §1, §2

[3] = tested on: Staphylococcus aureus A798; details: multiply-resistant strain (in particular quinolone-resistant), read-out: MIC for S. aureus A798
Description: as §1, §2

[4] = tested on: Enterococcus faecium A949; details: multiply-resistant strain (in particular quinolone-resistant), read-out: MIC for E. faecium A949
Description: as §1, §2

[5] = tested on: Acinetobacter baumanii T6474; details: Acinetobacter baumannii, multiply-resistant strain (in particular quinolone-resistant)
Description: as §1, §2

| Structure (SMILES) | MIC [1] [µg/mL] | MIC [2] [µg/mL] | MIC [3] [µg/mL] | MIC [4] [µg/mL] | MIC [5] [µg/mL] |
| --- | --- | --- | --- | --- | --- |
| O=c1oc(CCCN[C@@H]2Cn3c(=O)ccc4ccc(F)c2c43)nn1-c1ccc2c(c1)OCCO2 [Example 22, (S)-1-{3-[4-(2,3-dihydro-benzo[1,4]dioxin-6-yl)-5-oxo-4,5-dihydro-[1,3,4]oxadiazol-2-yl]-propylamino}-9-fluoro-1,2-dihydro-pyrrolo[3,2,1-ij]quinolin-4-one] | 4 (≈ 8.61 µM) | 4 (≈ 8.61 µM) | > 8 | > 8 | 8 (≈ 17.2 µM) |
| O=c1oc(CCCN[C@H]2Cn3c(=O)ccc4ccc(F)c2c43)nn1-c1ccc2c(c1)OCCO2 [Example 23, (R)-1-{3-[4-(2,3-dihydro-benzo[1,4]dioxin-6-yl)-5-oxo-4,5-dihydro-[1,3,4]oxadiazol-2-yl]-propylamino}-9-fluoro-1,2-dihydro-pyrrolo[3,2,1-ij]quinolin-4-one] | 4 (≈ 8.61 µM) | 4 (≈ 8.61 µM) | 8 (≈ 17.2 µM) | > 8 | > 8 |
| O=c1oc(CCCN[C@@H]2Cn3c(=O)cnc4ccc(F)c2c43)nn1-c1ccc2c(c1)OCCO2 [Example 24, (S)-6-{3-[4-(2,3-dihydro-benzo[1,4]dioxin-6-yl)-5-oxo-4,5-dihydro-[1,3,4]oxadiazol-2-yl]-propylamino}-7-fluoro-5,6-dihydro-pyrrolo[1,2,3-de]quinoxalin-3-one] | 2 (≈ 4.3 µM) | 4 (≈ 8.59 µM) | 8 (≈ 17.2 µM) | > 8 | 4 (≈ 8.59 µM) |
| O=c1oc(CCCN[C@H]2Cn3c(=O)cnc4ccc(F)c2c43)nn1-c1ccc2c(c1)OCCO2 [Example 25, (R)-6-{3-[4-(2,3-dihydro-benzo[1,4]dioxin-6-yl)-5-oxo-4,5-dihydro-[1,3,4]oxadiazol-2-yl]-propylamino}-7-fluoro-5,6-dihydro-pyrrolo[1,2,3-de]quinoxalin-3-one] | 2 (≈ 4.3 µM) | 8 (≈ 17.2 µM) | 4 (≈ 8.59 µM) | 8 (≈ 17.2 µM) | 8 (≈ 17.2 µM) |
| CCCc1ccc(-n2nc(CCCN[C@H]3Cn4c(=O)ccc5ccc(F)c3c54)oc2=O)cc1 [Example 26, (R)-9-fluoro-1-{3-[5-oxo-4-(4-propyl-phenyl)-4,5-dihydro-[1,3,4]oxadiazol-2-yl]-propylamino}-1,2-dihydro-pyrrolo[3,2,1-ij]quinolin-4-one] | 0.125 (≈ 0.279 µM) | 0.5 (≈ 1.11 µM) | 0.5 (≈ 1.11 µM) | 0.5 (≈ 1.11 µM) | 2 (≈ 4.46 µM) |
| CCCc1ccc(-n2nc(CCCN[C@@H]3Cn4c(=O)cnc5ccc(F)c3c54)oc2=O)cc1 [Example 27, (S)-7-fluoro-6-{3-[5-oxo-4-(4-propyl-phenyl)-4,5-dihydro-[1,3,4]oxadiazol-2-yl]-propylamino}-5,6-dihydro-pyrrolo[1,2,3-de]quinoxalin-3-one] | 0.5 (≈ 1.11 µM) | 4 (≈ 8.9 µM) | 2 (≈ 4.45 µM) | 2 (≈ 4.45 µM) | 4 (≈ 8.9 µM) |
| CCOc1ccc(-n2nc(CCCN[C@@H]3Cn4c(=O)ccc5ccc(F)c3c54)oc2=O)cc1 [Example 28, (S)-1-{3-[4-(4-ethoxy-phenyl)-5-oxo-4,5-dihydro-[1,3,4]oxadiazol-2-yl]-propylamino}-9-fluoro-1,2-dihydro-pyrrolo[3,2,1-ij]quinolin-4-one] | 2 (≈ 4.44 µM) | 8 (≈ 17.8 µM) | 4 (≈ 8.88 µM) | > 8 | 4 (≈ 8.88 µM) |
| CCOc1ccc(-n2nc(CCCN[C@H]3Cn4c(=O)ccc5ccc(F)c3c54)oc2=O)cc1 [Example 29, (R)-1-{3-[4-(4-ethoxy-phenyl)-5-oxo-4,5-dihydro-[1,3,4]oxadiazol-2-yl]-propylamino}-9-fluoro-1,2-dihydro-pyrrolo[3,2,1-ij]quinolin-4-one] | 2 (≈ 4.44 µM) | 8 (≈ 17.8 µM) | 4 (≈ 8.88 µM) | > 8 | 4 (≈ 8.88 µM) |
| CCOc1ccc(-n2nc(CCCN[C@@H]3Cn4c(=O)cnc5ccc(F)c3c54)oc2=O)cc1 [Example 30, (S)-6-{3-[4-(4-ethoxy-phenyl)-5-oxo-4,5-dihydro-[1,3,4]oxadiazol-2-yl]-propylamino}-7-fluoro-5,6-dihydro-pyrrolo[1,2,3-de]quinoxalin-3-one] | 1 (≈ 2.22 µM) | 8 (≈ 17.7 µM) | 4 (≈ 8.86 µM) | 8 (≈ 17.7 µM) | 4 (≈ 8.86 µM) |
| CCOc1ccc(-n2nc(CCCN[C@H]3Cn4c(=O)cnc5ccc(F)c3c54)oc2=O)cc1 [Example 31, (R)-6-{3-[4-(4-ethoxy-phenyl)-5-oxo-4,5-dihydro-[1,3,4]oxadiazol-2-yl]-propylamino}-7-fluoro-5,6-dihydro-pyrrolo[1,2,3-de]quinoxalin-3-one] | 1 (≈ 2.22 µM) | 8 (≈ 17.7 µM) | 4 (≈ 8.86 µM) | > 8 | 8 (≈ 17.7 µM) |
| CCSc1ccc(-n2nc(CCCN[C@H]3Cn4c(=O)ccc5ccc(F)c3c54)oc2=O)cc1 [Example 32, (R)-1-{3-[4-(4-ethylsulfanyl-phenyl)-5-oxo-4,5-dihydro-[1,3,4]oxadiazol-2-yl]-propylamino}-9-fluoro-1,2-dihydro-pyrrolo[3,2,1-ij]quinolin-4-one] | 0.063 (≈ 0.135 µM) | 0.5 (≈ 1.07 µM) | 0.25 (≈ 0.536 µM) | 0.5 (≈ 1.07 µM) | 0.5 (≈ 1.07 µM) |
| CCSc1ccc(-n2nc(CCCN[C@@H]3Cn4c(=O)cnc5ccc(F)c3c54)oc2=O)cc1 [Example 33, (S)-6-{3-[4-(4-ethylsulfanyl-phenyl)-5-oxo-4,5-dihydro-[1,3,4]oxadiazol-2-yl]-propylamino}-7-fluoro-5,6-dihydro-pyrrolo[1,2,3-de]quinoxalin-3-one] | 0.031 (≈ 0.0663 µM) | 0.5 (≈ 1.07 µM) | 0.25 (≈ 0.535 µM) | 0.5 (≈ 1.07 µM) | 0.25 (≈ 0.535 µM) |
| O=C1COc2ccc(-n3nc(CCCN[C@@H]4Cn5c(=O)ccc6cccc4c65)oc3=O)nc2N1 [Example 34, (S)-1-{3-[5-oxo-4-(3-oxo-3,4-dihydro-2H-pyrido[3,2-b][1,4]oxazin-6-yl)-4,5-dihydro-[1,3,4]oxadiazol-2-yl]-propylamino}-1,2-dihydro-pyrrolo[3,2,1-ij]quinolin-4-one] | 2 (≈ 4.34 µM) | 1 (≈ 2.17 µM) | 4 (≈ 8.69 µM) | 8 (≈ 17.4 µM) | 4 (≈ 8.69 µM) |

Second part, the molecule after the results:

| MIC [1] [µg/mL] | MIC [2] [µg/mL] | MIC [3] [µg/mL] | MIC [4] [µg/mL] | MIC [5] [µg/mL] | Structure (SMILES) |
| --- | --- | --- | --- | --- | --- |
| 0.063 (≈ 0.127 µM) | 0.063 (≈ 0.127 µM) | 0.063 (≈ 0.127 µM) | 0.25 (≈ 0.505 µM) | 0.25 (≈ 0.505 µM) | O=C1CSc2ccc(-n3nc(CCCN[C@H]4Cn5c(=O)cnc6ccc(F)c4c65)oc3=O)nc2N1 [Example 16, (R)-7-fluoro-6-{3-[5-oxo-4-(3-oxo-3,4-dihydro-2H-pyrido[3,2-b][1,4]-thiazin-6-yl)-4,5-dihydro-[1,3,4]oxadiazol-2-yl]-propylamino}-5,6-dihydro-pyrrolo[1,2,3-de]quinoxalin-3-one] |
| 0.031 (≈ 0.0627 µM) | 0.031 (≈ 0.0627 µM) | 0.063 (≈ 0.127 µM) | 0.25 (≈ 0.506 µM) | 0.25 (≈ 0.506 µM) | O=C1CSc2ccc(-n3nc(CCCN[C@@H]4Cn5c(=O)ccc6ccc(F)c4c65)oc3=O)nc2N1 [Example 17, (S)-9-fluoro-1-{3-[5-oxo-4-(3-oxo-3,4-dihydro-2H-pyrido[3,2-b][1,4]-thiazin-6-yl)-4,5-dihydro-[1,3,4]oxadiazol-2-yl]-propylamino}-1,2-dihydro-pyrrolo[3,2,1-ij]quinolin-4-one] |
| 0.031 (≈ 0.0626 µM) | ≤ 0.016 | 0.063 (≈ 0.127 µM) | 0.25 (≈ 0.505 µM) | 0.25 (≈ 0.505 µM) | O=C1CSc2ccc(-n3nc(CCCN[C@@H]4Cn5c(=O)cnc6ccc(F)c4c65)oc3=O)nc2N1 [Example 18, (S)-7-fluoro-6-{3-[5-oxo-4-(3-oxo-3,4-dihydro-2H-pyrido[3,2-b][1,4]-thiazin-6-yl)-4,5-dihydro-[1,3,4]oxadiazol-2-yl]-propylamino}-5,6-dihydro-pyrrolo[1,2,3-de]quinoxalin-3-one] |
| ≤ 0.016 | 0.031 (≈ 0.0628 µM) | ≤ 0.016 | 0.25 (≈ 0.507 µM) | ≤ 0.016 | O=C1CSc2ccc(-n3nc(CCCN[C@H]4Cn5c(=O)ccc6ccc(F)c4c65)oc3=O)cc2N1 [Example 19, (R)-9-fluoro-1-{3-[5-oxo-4-(3-oxo-3,4-dihydro-2H-benzo[1,4]-thiazin-6-yl)-4,5-dihydro-[1,3,4]oxadiazol-2-yl]-propylamino}-1,2-dihydro-pyrrolo[3,2,1-ij]quinolin-4-one] |
| ≤ 0.016 | 0.063 (≈ 0.127 µM) | ≤ 0.016 | 0.25 (≈ 0.506 µM) | ≤ 0.016 | O=C1CSc2ccc(-n3nc(CCCN[C@@H]4Cn5c(=O)cnc6ccc(F)c4c65)oc3=O)cc2N1 [Example 20, (S)-7-fluoro-6-{3-[5-oxo-4-(3-oxo-3,4-dihydro-2H-benzo[1,4]-thiazin-6-yl)-4,5-dihydro-[1,3,4]oxadiazol-2-yl]-propylamino}-5,6-dihydro-pyrrolo[1,2,3-de]quinoxalin-3-one] |
| ≤ 0.016 | 0.063 (≈ 0.127 µM) | ≤ 0.016 | 0.25 (≈ 0.506 µM) | ≤ 0.016 | O=C1CSc2ccc(-n3nc(CCCN[C@H]4Cn5c(=O)cnc6ccc(F)c4c65)oc3=O)cc2N1 [Example 21, (R)-7-fluoro-6-{3-[5-oxo-4-(3-oxo-3,4-dihydro-2H-benzo[1,4]-thiazin-6-yl)-4,5-dihydro-[1,3,4]oxadiazol-2-yl]-propylamino}-5,6-dihydro-pyrrolo[1,2,3-de]quinoxalin-3-one] |
| 0.5 (≈ 1.08 µM) | 0.5 (≈ 1.08 µM) | 1 (≈ 2.17 µM) | 4 (≈ 8.67 µM) | 2 (≈ 4.33 µM) | O=C1COc2ccc(-n3nc(CCCN[C@@H]4Cn5c(=O)cnc6cccc4c65)oc3=O)nc2N1 [Example 35, (S)-6-{3-[5-oxo-4-(3-oxo-3,4-dihydro-2H-pyrido[3,2-b][1,4]oxazin-6-yl)-4,5-dihydro-[1,3,4]oxadiazol-2-yl]-propylamino}-5,6-dihydro-pyrrolo[1,2,3-de]quinoxalin-3-one] |
